Structures can show the parent of a compound that is named as a salt.
target: recombinantly expressed human PARP-1 enzyme (Homo sapiens, UniProt P09874); assay: PARP enzyme assay, Method B (tritium-labeled NAD incorporation); format: biochemical; details: Method B; 200 μM NAD, room temperature 1 hour, pH 8.0; read-out: IC50 (μM)/Method B
Procedure: Method B: PARP Enzyme Assay:
The IC50 is determined in this method by incubating the substances to be tested with the DNA-activated, recombinantly expressed and purified PARP-1 enzyme. Specifically, various concentrations of the test substance are incubated in 50 μL of reaction solution, which contains 50 mM Tris, 5 mM MgCl2, 1 mM DTT, 200 μM NAD, 0.1 m Ci/mL tritium-labeled NAD, 0.1 mg/mL DNA, 0.1 mg/mL histones, 2 μg/mL recombinantly expressed human PARP-1 enzyme, pH=8.0, at room temperature for 1 hour. The reaction is stopped by adding 150 μL of 20% trichloroacetic acid, and the radiolabeled protein constituents are precipitated. After incubation on ice for 10 minutes, the labeled, insoluble constituents are separated off through a glass fiber filter and, after washing with 20% trichloroacetic acid three times, the radioactivity incorporated by the PARP-1 enzyme is measured by radioluminescence. Consideration of the incorporation rates determined in this way as a function of the concentration of the test substance results in IC50 as the concentration of the test substance which reduces the incorporation rate to half the maximum value attainable (incubation without inhibitor).
The IC50 (fifty percent inhibitory concentration of the test substance in a solution—expressed at micromolar (μM) concentration) measured in accordance with these procedures for the compounds of this invention are summarized in Table 1.

Chain of recombinantly expressed human PARP-1 enzyme (P09874 whole entry): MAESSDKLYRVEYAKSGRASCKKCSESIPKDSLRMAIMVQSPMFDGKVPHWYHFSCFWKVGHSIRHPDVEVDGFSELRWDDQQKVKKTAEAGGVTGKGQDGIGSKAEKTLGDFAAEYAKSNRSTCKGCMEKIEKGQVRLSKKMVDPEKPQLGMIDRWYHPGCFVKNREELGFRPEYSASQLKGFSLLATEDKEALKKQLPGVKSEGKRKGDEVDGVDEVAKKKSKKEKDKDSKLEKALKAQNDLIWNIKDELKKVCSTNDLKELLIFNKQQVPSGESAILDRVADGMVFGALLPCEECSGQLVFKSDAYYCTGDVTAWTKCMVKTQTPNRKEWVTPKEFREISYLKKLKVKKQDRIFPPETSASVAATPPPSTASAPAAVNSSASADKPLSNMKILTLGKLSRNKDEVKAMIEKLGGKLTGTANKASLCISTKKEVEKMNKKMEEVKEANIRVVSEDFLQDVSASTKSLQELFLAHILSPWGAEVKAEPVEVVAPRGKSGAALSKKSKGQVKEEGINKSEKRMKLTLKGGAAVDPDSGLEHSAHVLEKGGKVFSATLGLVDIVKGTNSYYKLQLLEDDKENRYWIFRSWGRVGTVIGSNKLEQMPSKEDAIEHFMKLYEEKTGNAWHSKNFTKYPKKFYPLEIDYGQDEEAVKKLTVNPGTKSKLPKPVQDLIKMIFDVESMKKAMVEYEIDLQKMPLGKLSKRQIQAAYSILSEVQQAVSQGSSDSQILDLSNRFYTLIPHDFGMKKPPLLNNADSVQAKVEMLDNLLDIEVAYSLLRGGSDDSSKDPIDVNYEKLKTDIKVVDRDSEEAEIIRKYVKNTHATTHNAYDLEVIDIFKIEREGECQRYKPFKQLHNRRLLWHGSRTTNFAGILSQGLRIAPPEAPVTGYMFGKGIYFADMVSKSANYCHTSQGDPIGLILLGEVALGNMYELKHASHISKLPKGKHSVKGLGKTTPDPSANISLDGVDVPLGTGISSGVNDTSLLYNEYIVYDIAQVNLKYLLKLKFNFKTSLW

Row | Compound | IC50 [µM]
1 | CCc1cc(-c2ccc(S(=O)(=O)NCc3c[nH]c4ccccc34)s2)c(C)[nH]c1=O [Example 122D, 5-(5-Ethyl-2-methyl-6-oxo-1,6-dihydro-pyridin-3-yl)-thiophene-2-sulfonic acid (1H-indol-3-ylmethyl)-amide] | 0.06
2 | CCc1cc(-c2coc(CN3CCCC3)c2)c(C)[nH]c1=O [Example 181A] | 2.17
3 | CCc1cc(-c2coc(CNCc3ccccn3)c2)c(C)[nH]c1=O [Example 182F, 3-Ethyl-6-methyl-5-(5-{[(pyridin-2-ylmethyl)-amino]-methyl}-furan-3-yl)-1H-pyridin-2-one] | 1.62
4 | CCc1cc(-c2cccc(CNCc3ccccn3)n2)c(C)[nH]c1=O [Example 182H, 5′-Ethyl-2′-methyl-6-{[(pyridin-2-ylmethyl)-amino]-methyl}-1′H-[2,3′]bipyridinyl-6′-one] | 1.11
5 | CCc1cc(-c2cccc(CN3CCC(O)CC3)n2)c(C)[nH]c1=O [Example 182I, 5′-Ethyl-6-(4-hydroxy-piperidin-1-ylmethyl)-2′-methyl-1′H-[2,3′]bipyridinyl-6′-one] | 8.61
6 | CCc1cc(-c2cccc(CN3CCC(N4CCCC4)CC3)n2)c(C)[nH]c1=O [Example 182K, 5′-Ethyl-2′-methyl-6-(4-pyrrolidin-1-yl-piperidin-1-ylmethyl)-1′H-[2,3′]bipyridinyl-6′-one] | 4.23
7 | CCc1cc(-c2cccc(C(=O)NCCc3ccc([N+](=O)[O-])cc3)n2)c(C)[nH]c1=O [Example 205, 5′-Ethyl-2′-methyl-6′-oxo-1′,6′-dihydro-[2,3′]bipyridinyl-6-carboxylic acid [2-(4-nitro-phenyl)-ethyl]-amide] | 0.57
8 | CCCCNC(=O)c1cccc(-c2cc(CC)c(=O)[nH]c2C)n1 [Example 206, 5′-Ethyl-2′-methyl-6′-oxo-1′,6′-dihydro-[2,3′]bipyridinyl-6-carboxylic acid butylamide] | 1.14
9 | CCCCNC(=O)c1ccc(-c2cc(CC)c(=O)[nH]c2C)nc1 [Example 209, 5′-Ethyl-2′-methyl-6′-oxo-1′,6′-dihydro-[2,3′]bipyridinyl-5-carboxylic acid butylamide] | 13
10 | CCc1cc(-c2ccc(C(=O)NC3CCCC3)cn2)c(C)[nH]c1=O [Example 212, 5′-Ethyl-2′-methyl-6′-oxo-1′,6′-dihydro-[2,3′]bipyridinyl-5-carboxylic acid cyclopentylamide] | 12.9
11 | CCc1cc(-c2cc(C(=O)NCCc3ccc([N+](=O)[O-])cc3)ccn2)c(C)[nH]c1=O [Example 213, 5′-Ethyl-2′-methyl-6′-oxo-1′,6′-dihydro-[2,3′]bipyridinyl-4-carboxylic acid [2-(4-nitro-phenyl)-ethyl]-amide] | 0.21
12 | CCCCNC(=O)c1ccnc(-c2cc(CC)c(=O)[nH]c2C)c1 [Example 215, 5′-Ethyl-2′-methyl-6′-oxo-1′,6′-dihydro-[2,3′]bipyridinyl-4-carboxylic acid butylamide] | 1.25
13 | CCc1cc(-c2cc(C(=O)NC3CCCC3)ccn2)c(C)[nH]c1=O [Example 216, 5′-Ethyl-2′-methyl-6′-oxo-1′,6′-dihydro-[2,3′]bipyridinyl-4-carboxylic acid cyclopentylamide] | 1.5
14 | CCc1cc(-c2cc(C(=O)NCCc3ccncc3)ccn2)c(C)[nH]c1=O [Example 218, 5′-Ethyl-2′-methyl-6′-oxo-1′,6′-dihydro-[2,3′]bipyridinyl-4-carboxylic acid (2-pyridin-4-yl-ethyl)-amide] | 0.58
15 | CCc1cc(-c2cncc(C(=O)NC3CCCC3)c2)c(C)[nH]c1=O [Example 219, 5′-Ethyl-2′-methyl-6′-oxo-1′,6′-dihydro-[3,3′]bipyridinyl-5-carboxylic acid cyclopentylamide] | 1.53
16 | CCc1cc(-c2cncc(C(=O)NCc3ccccn3)c2)c(C)[nH]c1=O [Example 221, 5′-Ethyl-2′-methyl-6′-oxo-1′,6′-dihydro-[3,3′]bipyridinyl-5-carboxylic acid (pyridin-2-ylmethyl)-amide] | 2.04

Other lines, results leading:

Row | IC50 [µM] | Compound
17 | 0.58 | CCc1cc(-c2ccc(CNCc3ccccc3)o2)c(C)[nH]c1=O [Example 123, 5-[5-(Benzylamino-methyl)-furan-2-yl]-3-ethyl-6-methyl-1H-pyridin-2-one hydrochloride]
18 | 2.11 | CCc1cc(-c2ccc(CN(C)Cc3ccccc3)o2)c(C)[nH]c1=O [Example 179, 5-{5-[(Benzylmethylamino)methyl]furan-2-yl)-3-ethyl-6-methyl-1H-pyridin-2-one]
19 | 0.49 | CCc1cc(-c2ccc(CN3CCCC3)o2)c(C)[nH]c1=O [Example 181]
20 | 17.4 | CCc1cc(-c2ccc(CN(Cc3ccccc3)Cc3cccnc3)o2)c(C)[nH]c1=O [Example 182A, 5-{5-[(Benzyl-pyridin-3-ylmethyl-amino)-methyl]-furan-2-yl}-3-ethyl-6-methyl-1H-pyridin-2-one]
21 | 0.29 | CCc1cc(-c2ccc(CNCc3ccc(NC(C)=O)cc3)o2)c(C)[nH]c1=O [Example 182B, N-[4-({[5-(5-Ethyl-2-methyl-6-oxo-1,6-dihydro-pyridin-3-yl)-furan-2-ylmethyl]-amino}-methyl)-phenyl]-acetamide]
22 | 0.28 | CCc1cc(-c2ccc(CNCCc3ccc(Cl)c(S(N)(=O)=O)c3)o2)c(C)[nH]c1=O [Example 182C, 2-Chloro-5-(2-{[5-(5-ethyl-2-methyl-6-oxo-1,6-dihydro-pyridin-3-yl)-furan-2-ylmethyl]-amino}-ethyl)-benzenesulfonamide]
23 | 0.3 | CCc1cc(-c2ccc(CNCc3cnn(C)c3)o2)c(C)[nH]c1=O [Example 182D, 3-Ethyl-6-methyl-5-(5-{[(1-methyl-1H-pyrazol-4-ylmethyl)-amino]-methyl}-furan-2-yl)-1H-pyridin-2-one]
24 | 1.49 | CCc1cc(-c2ccc(CNCc3ccccc3OC(F)(F)F)o2)c(C)[nH]c1=O [Example 182E, 3-Ethyl-6-methyl-5-{5-[(2-trifluoromethoxy-benzylamino)-methyl]-furan-2-yl}-1H-pyridin-2-one]
25 | 3.33 | CCc1cc(-c2cccc(CN3CCCC3)n2)c(C)[nH]c1=O [Example 182G, 5′-Ethyl-2′-methyl-6-pyrrolidin-1-ylmethyl-1′H-[2,3′]bipyridinyl-6′-one]
26 | 14.6 | CCc1cc(-c2cccc(CN3CCN(C(C)=O)CC3)n2)c(C)[nH]c1=O [Example 182J, 6-(4-Acetyl-piperazin-1-ylmethyl)-5′-ethyl-2′-methyl-1′H-[2,3′]bipyridinyl-6′-one]
27 | 0.18 | CCc1cc(-c2ccc(C=NOCCN3CCCC3)o2)c(C)[nH]c1=O [Example 199, 3-Ethyl-2-methyl-6-oxo-1,6-dihydropyridin-3-yl)furan-2-carbaldehyde O-(2-pyrrolidin-1-ylethyl)oxime hydrochloride]
28 | 0.51 | CCc1cc(-c2ccc(C=NO)o2)c(C)[nH]c1=O [Example 199A, 5-(5-Ethyl-2-methyl-6-oxo-1,6-dihydro-pyridin-3-yl)-furan-2-carbaldehyde oxime]
29 | 1.03 | CCc1cc(-c2ccc(CO)o2)c(C)[nH]c1=O [Example 200A, 3-Ethyl-5-(5-hydroxymethyl-furan-2-yl)-6-methyl-1H-pyridin-2-one]
30 | 1.35 | CCc1cc(-c2ccc(C(=O)N3CCN(c4ccccc4)CC3)o2)c(C)[nH]c1=O [Example 201, 3-Ethyl-6-methyl-5-[5-(4-phenyl-piperazine-1-carbonyl)-furan-2-yl]-1H-pyridin-2-one]
31 | 4.72 | CCc1cc(-c2cccc(C(=O)N3CCCC3)n2)c(C)[nH]c1=O [Example 207, 5′-Ethyl-2′-methyl-6-(pyrrolidine-1-carbonyl)-1′H-[2,3′]bipyridinyl-6′-one]
32 | 14.8 | CCc1cc(-c2ccc(C(=O)NCc3ccccn3)cn2)c(C)[nH]c1=O [Example 208, 5′-Ethyl-2′-methyl-6′-oxo-1′,6′-dihydro-[2,3′]bipyridinyl-5-carboxylic acid (pyridin-2-ylmethyl)-amide]
33 | 12.1 | CCc1cc(-c2ccc(C(=O)N3CCC(O)C3)cn2)c(C)[nH]c1=O (stereo not shown) [Example 210, 5′-Ethyl-5-(3-hydroxy-pyrrolidine-1-carbonyl)-2′-methyl-1′H-[2,3′]bipyridinyl-6′-one]
34 | 8.6 | CCc1cc(-c2ccc(C(=O)N3CCCC3)cn2)c(C)[nH]c1=O [Example 211, 5′-Ethyl-2′-methyl-5-(pyrrolidine-1-carbonyl)-1′H-[2,3′]bipyridinyl-6′-one]
35 | 1.4 | CCc1cc(-c2cc(C(=O)N3CCCC3)ccn2)c(C)[nH]c1=O [Example 214, 5′-Ethyl-2′-methyl-4-(pyrrolidine-1-carbonyl)-1′H-[2,3′]bipyridinyl-6′-one]
36 | 2.87 | CCc1cc(-c2cc(C(=O)NCCN3CCOCC3)ccn2)c(C)[nH]c1=O [Example 217, 5′-Ethyl-2′-methyl-6′-oxo-1′,6′-dihydro-[2,3′]bipyridinyl-4-carboxylic acid (2-morpholin-4-yl-ethyl)-amide]
37 | 1.27 | CCc1cc(-c2cncc(C(=O)NCc3ccccc3)c2)c(C)[nH]c1=O [Example 220, 5′-Ethyl-2′-methyl-6′-oxo-1′,6′-dihydro-[3,3′]bipyridinyl-5-carboxylic acid benzylamide]
